# Experimental data as given in ChEMBL document CHEMBL5661943, “ASAP - In vitro antiviral effect” (2024).
# Values joined by “and” are separate entries in the source; they are usually repeats but may differ in a detail not shown here. Equal values may be shown once.
# Legend:
# [1] = system: dengue virus type 2; test: Functional immunofluorescence assay to measure dose dependent changes in antiviral-drug inhibitory efficacy against Dengue virus type 2 Thailand/16681/84 in Vero E6/TMPRSS2 cells (cotreated with P-gp inhibitor, Elacridar). Cells are treated with antiviral candidates that are serially diluted, following infection, cells are fixed. EC50 is reported via analysis of immunofluorescence staining. The assay has been performed by Icahn School of Medicine at Mount Sinai.; assay type: organism-based, Chlorocebus sabaeus, VeroE6/TMPRSS2
# [2] = system: Zika virus; test: EC50 is reported via analysis of immunofluorescence staining. The assay has been performed by Icahn School of Medicine at Mount Sinai.; assay type: functional, organism-based, Chlorocebus sabaeus, VeroE6/TMPRSS2; settings: for EC90: P-gp concentration 2 uM, P-gp inhibitor Elacidar
# [3] = system: Zika virus; test: Functional CPE-based assay to measure dose dependent changes in antiviral-drug inhibitory efficacy against Zika virus MR766 in Vero E6 miRFP670 cells (cotreated with P-gp inhibitor, CP100356). Cells are treated with antiviral candidates that are serially diluted. EC50 is reported via analysis of MTS assay as a readout of CPE. The assay has been performed by KU Leuven.; assay type: organism-based, Chlorocebus sabaeus, Vero C1008; settings: Zika virus; for EC90: P-gp concentration 500 nM, P-gp inhibitor CP100356
# [4] = system: dengue virus type 2; test: Functional assay to measure dose dependent changes in antiviral-drug inhibitory efficacy against Dengue virus type 2 New Guinea C in Vero E6 miRFP670 cells (cotreated with P-gp inhibitor, CP100356). Cells are treated with antiviral candidates that are serially diluted, following infection, cells are fixed. EC50 is reported via analysis of fluorescence intensity using high-content imager. The …; assay type: organism-based, Chlorocebus sabaeus, Vero C1008; settings: Dengue virus; for EC90: P-gp concentration 500 nM, P-gp inhibitor CP100356
smiles,measurement,setting,value
CNC(=O)[C@H](Nc1ccc2c(c1)CNC2)c1cc(Cl)cc(C2CC2)c1,EC50,"[1]; Dengue virus, VeroE6/TMPRSS2",> 50 µM
same,EC90,"[1]; Dengue virus, VeroE6/TMPRSS2, Maximum measured 162.297 %, Minimum measured 85.868 %, P-gp concentration 2 uM, P-gp inhibitor Elacidar",> 50 µM
same,EC90,"[2]; Zika virus, VeroE6/TMPRSS2, Maximum measured 135.998 %, Minimum measured 64.507 %",> 16.7 µM
same,EC90,"[2]; Zika virus, VeroE6/TMPRSS2, Baseline response 0 %, Hill slope -0.359, Maximum measured 94.864 %, Maximum response 100 %, Minimum measured 60.283 %, R squared 0.436",> 5.56 µM
same,EC50,[2]; veroe6/tmprss2,> 16.7 µM
same,EC50,[3]; Vero C1008,3.04 µM
same,EC90,"[3]; Vero C1008, Baseline response 0 %, EC90 CI (lower) 0.152 uM, EC90 CI (upper) 118.856 uM, Hill slope 6.595, Maximum measured 181.208 %, Maximum response 100 %, Minimum measured 1.929 %, R squared 0.623",4.25 µM
O=C(Nc1cc(Cl)cc([C@H]2CN(Cc3ccccc3)C[C@@H]2c2cccc(-c3nn[nH]n3)c2)c1)OCc1ccccc1,EC50,"[1]; Dengue virus, VeroE6/TMPRSS2",3.42 µM
same,EC90,"[1]; Dengue virus, VeroE6/TMPRSS2",5.71 µM
same,EC50,"[2]; Zika virus, VeroE6/TMPRSS2",7.98 µM
same,EC90,"[2]; Zika virus, VeroE6/TMPRSS2, Baseline response 15.017 %, Hill slope -78.318, Maximum measured 79.355 %, Maximum response 65.758 %, Minimum measured 8.182 %, R squared 0.629",8.21 µM
same,EC50,[4]; Vero C1008,7.89 µM
same,EC90,"[4]; Vero C1008, Baseline response 0 %, EC90 CI (lower) 5.235 uM, EC90 CI (upper) 7.261 uM, Hill slope -8.911, Maximum measured 94.205 %, Maximum response 100 %, Minimum measured 1.534 %, R squared 0.94",10.1 µM
O=C(NC1CCOCC1)[C@H](Nc1ccc2c(c1)CNC2)c1cc(Cl)cc(C2CC2)c1,EC50,"[1]; Dengue virus, VeroE6/TMPRSS2",> 5.56 µM
same,EC90,"[1]; Dengue virus, VeroE6/TMPRSS2, Maximum measured 137.73 %, Minimum measured 84.756 %, P-gp concentration 2 uM, P-gp inhibitor Elacidar",> 5.56 µM
same,EC90,"[2]; Baseline response 0 %, Hill slope -0.296, Maximum measured 102.901 %, Maximum response 100 %, Minimum measured 72.878 %, R squared 0.169",> 16.7 µM
same,EC90,"[2]; Baseline response 0 %, Hill slope -0.385, Maximum measured 147.213 %, Maximum response 4776.39 %, Minimum measured 30.718 %, R squared 0.741",< 0.023 µM
same,EC50,[3]; Vero C1008,3.19 µM
same,EC90,"[3]; Vero C1008, Baseline response 0 %, EC90 CI (lower) 0.059 uM, EC90 CI (upper) 333.672 uM, Hill slope 6.678, Maximum measured 170.178 %, Maximum response 100 %, Minimum measured 3.055 %, R squared 0.499",4.44 µM
same,EC50,[4]; Vero C1008,36 µM
same,EC90,"[4]; Vero C1008, Baseline response 0 %, Hill slope -0.982, Maximum measured 114.445 %, Maximum response 100 %, Minimum measured 34.266 %, R squared 0.594",> 50 µM
O=C(Nc1ccc2c(c1)CNC2)c1cc(Br)cc2[nH]c(Cc3ccccc3)nc12,EC50,"[1]; Dengue virus, VeroE6/TMPRSS2",> 16.7 µM
same,EC90,"[1]; Dengue virus, VeroE6/TMPRSS2, Maximum measured 134.005 %, Minimum measured 55.42 %, P-gp concentration 2 uM, P-gp inhibitor Elacidar",> 16.7 µM
same,EC50,"[2]; Zika virus, VeroE6/TMPRSS2",> 1.85 µM
same,EC90,"[2]; Zika virus, VeroE6/TMPRSS2, Maximum measured 133.577 %, Minimum measured 80.808 %",> 1.85 µM
same,EC50,[4]; Vero C1008,2.23 µM
same,EC90,"[4]; Vero C1008, Baseline response 0 %, Hill slope -0.825, Maximum measured 88.647 %, Maximum response 100 %, Minimum measured 23.774 %, R squared 0.436",> 6.25 µM
O=C(Nc1ccc2c(c1)CNC2)c1cc(F)cc2[nH]ncc12,EC50,"[1]; Dengue virus, VeroE6/TMPRSS2",> 50 µM
same,EC90,"[1]; Dengue virus, VeroE6/TMPRSS2, Maximum measured 176.33 %, Minimum measured 105.177 %, P-gp concentration 2 uM, P-gp inhibitor Elacidar",> 50 µM
same,EC90,"[2]; Baseline response 0 %, EC90 CI (lower) 0.259 uM, EC90 CI (upper) 34.627 uM, Hill slope -1.703, Maximum measured 110.866 %, Maximum response 50 %, Minimum measured 3.647 %, R squared 0.44",39.5 µM
same,EC90,"[2]; Zika virus, VeroE6/TMPRSS2, Baseline response 0 %, Hill slope -2.726, Maximum measured 111.669 %, Maximum response 100 %, Minimum measured 14.076 %, R squared 0.547",> 50 µM
same,EC50,[2]; veroe6/tmprss2,25.4 µM and 10.9 µM
same,EC50,[3]; Vero C1008,25 µM
same,EC90,"[3]; Vero C1008, Baseline response 0 %, Hill slope 1.231, Maximum measured 66.562 %, Maximum response 100 %, Minimum measured -0.926 %, R squared 0.986",> 50 µM
same,EC50,[4]; Vero C1008,> 50 µM
same,EC90,"[4]; Vero C1008, Maximum measured 105.261 %, Minimum measured 100.126 %",> 50 µM
O=C(Nc1ccc2c(c1)CNC2)c1cc(Br)cc2[nH]ncc12,EC50,"[1]; Dengue virus, VeroE6/TMPRSS2",> 50 µM
same,EC90,"[1]; Dengue virus, VeroE6/TMPRSS2, Maximum measured 186.968 %, Minimum measured 93.389 %, P-gp concentration 2 uM, P-gp inhibitor Elacidar",> 50 µM
same,EC90,"[2]; Baseline response 0 %, EC90 CI (lower) 1.042 uM, EC90 CI (upper) 22.584 uM, Hill slope -2.906, Maximum measured 100.475 %, Maximum response 60 %, Minimum measured 3.913 %, R squared 0.559",22 µM
same,EC90,"[2]; Baseline response 0 %, Hill slope -0.436, Maximum measured 89.533 %, Maximum response 80 %, Minimum measured 16.256 %, R squared 0.57",> 50 µM
same,EC50,[2]; veroe6/tmprss2,3.73 µM and 10.3 µM
same,EC50,[3]; Vero C1008,> 50 µM
same,EC90,"[3]; Vero C1008, Baseline response 0 %, Hill slope 1.733, Maximum measured 40.291 %, Maximum response 100 %, Minimum measured -1.647 %, R squared 0.923",> 50 µM
same,EC50,[4]; Vero C1008,> 50 µM
same,EC90,"[4]; Vero C1008, Baseline response 0 %, Hill slope -0.471, Maximum measured 107.19 %, Maximum response 100 %, Minimum measured 78.588 %, R squared 0.089",> 50 µM
O=C(NCc1ccc(F)cc1)[C@H](Nc1ccc2c(c1)CNC2)c1cc(Cl)cc2[nH]ncc12,EC50,"[1]; Dengue virus, VeroE6/TMPRSS2",> 50 µM
same,EC90,"[1]; Dengue virus, VeroE6/TMPRSS2, Maximum measured 150.332 %, Minimum measured 95.286 %, P-gp concentration 2 uM, P-gp inhibitor Elacidar",> 50 µM
same,EC90,"[2]; Baseline response 0 %, EC90 CI (lower) 0.003 uM, EC90 CI (upper) 0.037 uM, Hill slope -0.964, Maximum measured 95.888 %, Maximum response 100 %, Minimum measured 15.187 %, R squared 0.753",0.949 µM
same,EC90,"[2]; Baseline response 0 %, Hill slope -0.072, Maximum measured 102.654 %, Maximum response 100 %, Minimum measured 56.434 %, R squared 0.024",> 16.7 µM
same,EC50,[3]; Vero C1008,> 50 µM
same,EC90,"[3]; Vero C1008, Maximum measured 1.197 %, Minimum measured -8.607 %",> 50 µM
same,EC50,[4]; Vero C1008,> 50 µM
same,EC90,"[4]; Vero C1008, Maximum measured 108.299 %, Minimum measured 100.399 %",> 50 µM
O=C(Nc1ccc2c(c1)CNC2)c1cc(Cl)cc2ccncc12,EC50,"[1]; Dengue virus, VeroE6/TMPRSS2",> 50 µM
same,EC90,"[1]; Dengue virus, VeroE6/TMPRSS2, Maximum measured 58.239 %, Minimum measured 35.466 %, P-gp concentration 2 uM, P-gp inhibitor Elacidar",> 50 µM
same,EC90,"[1]; Dengue virus, VeroE6/TMPRSS2, Baseline response 0 %, Hill slope -1.704, Maximum measured 164.443 %, Maximum response 150 %, Minimum measured 48.079 %, P-gp concentration 2 uM, R squared 0.653, P-gp inhibitor Elacidar",> 50 µM
same,EC50,[1]; veroe6/tmprss2,29.3 µM
same,EC90,"[2]; Baseline response 0 %, EC90 CI (lower) 0.484 uM, EC90 CI (upper) 78.893 uM, Hill slope -5.004, Maximum measured 134.979 %, Maximum response 50 %, Minimum measured 2.857 %, R squared 0.323",14.9 µM
same,EC50,"[2]; Zika virus, VeroE6/TMPRSS2",16.1 µM
same,EC90,"[2]; Zika virus, VeroE6/TMPRSS2, Baseline response 0 %, Hill slope -17.627, Maximum measured 65.213 %, Maximum response 47.14 %, Minimum measured 8.096 %, R squared 0.51",18.3 µM
same,EC50,[2]; veroe6/tmprss2,9.59 µM
same,EC50,[3]; Vero C1008,3.67 µM
same,EC90,"[3]; Vero C1008, Baseline response 0 %, EC90 CI (lower) 1.242 uM, EC90 CI (upper) 28.049 uM, Hill slope 4.622, Maximum measured 165.724 %, Maximum response 100 %, Minimum measured 0.965 %, R squared 0.715",5.9 µM
same,EC50,[4]; Vero C1008,41.2 µM
same,EC90,"[4]; Vero C1008, Baseline response 0 %, Hill slope -2.845, Maximum measured 98.374 %, Maximum response 100 %, Minimum measured 34.264 %, R squared 0.76",> 50 µM
O=C1Cc2c(cc(Br)cc2C(=O)Nc2ccc3c(c2)CNC3)N1,EC50,"[1]; Dengue virus, VeroE6/TMPRSS2",> 50 µM
same,EC90,"[1]; Dengue virus, VeroE6/TMPRSS2, Maximum measured […], Minimum measured 159.027 %, P-gp concentration 2 uM, P-gp inhibitor Elacidar",> 50 µM
same,EC90,"[2]; Baseline response 0 %, EC90 CI (lower) 0.005 uM, EC90 CI (upper) 0.605 uM, Hill slope -0.732, Maximum measured 85.329 %, Maximum response 60 %, Minimum measured 3.582 %, R squared 0.614",21.3 µM
same,EC90,"[2]; Baseline response 0 %, Hill slope -0.686, Maximum measured 100.363 %, Maximum response 100 %, Minimum measured 5.777 %, R squared 0.778",> 50 µM
same,EC50,"[2]; Zika virus, VeroE6/TMPRSS2",2.09 µM
same,EC50,[2]; veroe6/tmprss2,1.06 µM
same,EC50,[3]; Vero C1008,7.52 µM
same,EC90,"[3]; Vero C1008, Baseline response 0 %, EC90 CI (lower) 4.323 uM, EC90 CI (upper) 45.141 uM, Hill slope 3.545, Maximum measured 169.819 %, Maximum response 100 %, Minimum measured -0.685 %, R squared 0.785",14 µM
same,EC50,[4]; Vero C1008,> 50 µM
same,EC90,"[4]; Vero C1008, Maximum measured 133.969 %, Minimum measured 97.1 %",> 50 µM
